# Experiments:
# [1] = system: S. aureus (USA300); experiment: Minimum Inhibitory Concentration (MIC); assay type: cell-based; settings: for visible growth: Table 3; for growth (OD600): Table 4
# Experimental: The MIC assay is a technique used to determine the lowest concentration of a particular antibiotic needed to inhibit visible growth of bacteria. In this method, two fold serial dilutions of the compound were prepared in broth media. An inoculum of overnight bacterial cultures will be prepared in the same broth medium. The serial dilution tubes will be inoculated with 0.025 ml of undiluted over-night culture (1:100), a 1×10-2 dilution (1:10,000), or a 1×10-4 dilution (1:1,000,000) of bacterial suspension. Results were recorded after 24 hour incubation at 35° C. without shaking by measuring OD600. The MIC is determined by the lowest concentration of compound where no growth is visible.
# [2] = system: E. coli In-house WT (SLR-IBT); experiment: Disc diffusion; assay type: cell-based
# Experimental: (§1) Different concentrations of antimicrobial discs were made by incorporation of defined amount of the compound and were stored in a refrigerator (4° C.). Plates were swabbed in three directions with test bacteria to give uniform growth with 0.5 McFarland inocula. Antimicrobial discs were applied to the plates as soon as possible, but no longer than 15 minutes after inoculation. The plates were incubated at 37° C. for 18 hours. The growth inhibition zones around the disc were measured.
# [3] = system: S. aureus USA300; experiment: Disc diffusion; assay type: cell-based
# Experimental: as §1
# [4] = system: P. aeruginosa 4990; experiment: Disc diffusion; assay type: cell-based
# Experimental: as §1
# [5] = system: P. aeruginosa 4858; experiment: Disc diffusion; assay type: cell-based
# Experimental: as §1
# [6] = system: P. aeruginosa 4961; experiment: Disc diffusion; assay type: cell-based
# Experimental: as §1
# [7] = system: S. pneumoniae ATCC 6301; experiment: Disc diffusion; assay type: cell-based
# Experimental: as §1
# [8] = system: S. aureus Col (MRSA); experiment: Disc diffusion; assay type: cell-based
# Experimental: as §1
# [9] = system: S. aureus 8325-4; experiment: Disc diffusion; assay type: cell-based
# Experimental: as §1
# [10] = system: E. coli K12; experiment: Disc diffusion; assay type: cell-based
# Experimental: as §1
# [11] = system: B. subtilus ATCC 6051; experiment: Disc diffusion; assay type: cell-based
# Experimental: as §1
# [12] = system: S. aureus (8324-5); experiment: Minimum Bactericidal Concentration (MBC); assay type: cell-based
# Experimental: (§2) MBC is the lowest concentration of compound required to kill an organism. […] In the case of small colony variants, growth might not occur earlier than 48 hours.
# [13] = system: B. subtilis; experiment: Minimum Bactericidal Concentration (MBC); assay type: cell-based
# Experimental: as §2
# [14] = system: S. aureus (Col); experiment: Minimum Bactericidal Concentration (MBC); assay type: cell-based
# Experimental: as §2
# [15] = system: P. aeruginosa 4858; experiment: Minimum Bactericidal Concentration (MBC); assay type: cell-based
# Experimental: as §2
# [16] = system: S. aureus (USA300); experiment: Minimum Bactericidal Concentration (MBC); assay type: cell-based
# Experimental: as §2
# [17] = system: S. aureus; experiment: Minimum Bactericidal Concentration (MBC); assay type: cell-based; settings: UV-5; S. Aureus NCTC8325-4
# Experimental: as §2
# [18] = system: Staphylococcus aureus USA300
# Experimental: The challenge inoculum included 6.13e4 cfu USA300+3% Hog mucin which causes bacteremia/sepsis within 24-72 h. […] The mice used were 6-8 week old female BALB/c mice in groups of 10. One group of 5 mice was also included to examine the potential toxicity of 3% hog mucin. Endpoint was day 10 post infection, death, or euthanasia Animals displaying severe illness as determined by >30% weight loss, extreme lethargy, or paralysis were euthanized. Observation included daily weight, health checks, and temperatures starting with the initiation of dosing until 10 days post challenge.
compound,measurement,setting,value
"CC[C@H]1OC(=O)[C@H](C)[C@@H](O[C@H]2C[C@@](C)(OC)[C@@H](O)[C@H](C)O2)[C@H](C)[C@@H](O[C@@H]2O[C@H](C)C[C@H](N(C)C)[C@H]2O)[C@](C)(O)C[C@@H](C)C(=O)[C@H](C)[C@@H](O)[C@]1(C)O [Erythromycin, reference compound]",visible growth,[1]; Erythromycin 0.20 ug/ml,+
same,growth (OD600),[1]; Erythromycin 0.20 ug/ml,+ (+ OD600 <0.05)
same,visible growth,[1]; Erythromycin 0.39 ug/ml,+
same,growth (OD600),[1]; Erythromycin 0.39 ug/ml,+ (+ OD600 <0.05)
same,visible growth,[1]; Erythromycin 0.78 ug/ml,+
same,growth (OD600),[1]; Erythromycin 0.78 ug/ml,+ (+ OD600 <0.05)
same,visible growth,[1]; Erythromycin 1.56 ug/ml,+
same,growth (OD600),[1]; Erythromycin 1.56 ug/ml,+ (+ OD600 <0.05)
same,visible growth,[1]; Erythromycin 3.13 ug/ml,+
same,growth (OD600),[1]; Erythromycin 3.13 ug/ml,+ (+ OD600 <0.05)
same,visible growth,[1]; Erythromycin 6.25 ug/ml,+
same,growth (OD600),[1]; Erythromycin 6.25 ug/ml,+ (+ OD600 <0.05)
same,visible growth,[1]; Erythromycin 25.00 ug/ml,−
same,growth (OD600),[1]; Erythromycin 25.00 ug/ml,− (− OD600 >0.05)
same,visible growth,[1]; Erythromycin 50 ug/ml,−
same,growth (OD600),[1]; Erythromycin 50 ug/ml,− (− OD600 >0.05)
same,visible growth,[1]; Erythromycin 100 ug/ml,−
same,growth (OD600),[1]; Erythromycin 100 ug/ml,− (− OD600 >0.05)
same,zone of inhibition at 10 µg/disc,"[2]; Escherichia coli, read-out: Inhibition zone diameter",15 mm
same,zone of inhibition at 10 µg/disc,"[3]; Staphylococcus aureus, USA300, read-out: Inhibition zone diameter",15 mm
same,zone of inhibition at 10 µg/disc,"[4]; Pseudomonas aeruginosa, 4990, read-out: Inhibition zone diameter",20 mm
same,zone of inhibition at 10 µg/disc,"[5]; Pseudomonas aeruginosa, 4858, read-out: Inhibition zone diameter",8 mm
same,zone of inhibition at 10 µg/disc,"[6]; Pseudomonas aeruginosa, 4961, read-out: Inhibition zone diameter",18 mm
same,zone of inhibition at 10 µg/disc,"[7]; Streptococcus pneumoniae, ATCC6301, read-out: Inhibition zone diameter",38 mm
same,zone of inhibition at 10 µg/disc,"[8]; Staphylococcus aureus, MRSA, read-out: Inhibition zone diameter",42 mm
same,zone of inhibition at 10 µg/disc,"[9]; Staphylococcus aureus, 83254, read-out: Inhibition zone diameter",35 mm
same,zone of inhibition at 10 µg/disc,"[10]; Escherichia coli, K12, read-out: Inhibition zone diameter",20 mm
same,zone of inhibition at 10 µg/disc,[11]; read-out: Inhibition zone diameter,35 mm
"[N-]=[N+]=Nc1ccc(NCCCCCCN2C[C@H](O)[C@@H](O)[C@H](O)[C@H]2CO)c([N+](=O)[O-])c1 [UV-5, N—(N-{4′-azido-2′-nitrophenyl}-6-aminohexyl)deoxynojirimycin]",growth after re-inoculation on BHI agar,[12]; UV-5 0.16 mg/ml,+
same,growth after re-inoculation on BHI agar,[12]; UV-5 0.3 mg/ml,+
same,growth after re-inoculation on BHI agar,[12]; UV-5 0.62 mg/ml,+
same,growth after re-inoculation on BHI agar,[12]; UV-5 2.5 mg/ml,+
same,growth after re-inoculation on BHI agar,[12]; UV-5 5 mg/ml,+
same,growth after re-inoculation on BHI agar,[12]; UV-5 10 mg/ml,−
same,growth after re-inoculation on BHI agar,[12]; UV-5 20 mg/ml,−
same,MBC,[13]; UV-5,2500 µg/mL
same,growth after re-inoculation on BHI agar,[13]; UV-5 0.16 mg/ml,+
same,growth after re-inoculation on BHI agar,[13]; UV-5 0.3 mg/ml,+
same,growth after re-inoculation on BHI agar,[13]; UV-5 0.62 mg/ml,+
same,growth after re-inoculation on BHI agar,[13]; UV-5 10 mg/ml,−
same,growth after re-inoculation on BHI agar,[13]; UV-5 20 mg/ml,−
same,growth after re-inoculation on BHI agar,[14]; UV-5 0.16 mg/ml,+
same,growth after re-inoculation on BHI agar,[14]; UV-5 0.3 mg/ml,+
same,growth after re-inoculation on BHI agar,[14]; UV-5 0.62 mg/ml,+
same,growth after re-inoculation on BHI agar,[14]; UV-5 10 mg/ml,−
same,growth after re-inoculation on BHI agar,[14]; UV-5 20 mg/ml,−
same,MBC,"[14]; UV-5, S. aureus COL MRSA",2500 µg/mL
same,MBC,[15]; UV-5,5000 µg/mL
same,growth after re-inoculation on BHI agar,[15]; UV-5 0.16 mg/ml,+
same,growth after re-inoculation on BHI agar,[15]; UV-5 0.3 mg/ml,+
same,growth after re-inoculation on BHI agar,[15]; UV-5 0.62 mg/ml,+
same,growth after re-inoculation on BHI agar,[15]; UV-5 2.5 mg/ml,+
same,growth after re-inoculation on BHI agar,[15]; UV-5 5 mg/ml,−
same,growth after re-inoculation on BHI agar,[15]; UV-5 10 mg/ml,−
same,growth after re-inoculation on BHI agar,[15]; UV-5 20 mg/ml,−
same,MBC,[16]; UV-5,20000 µg/mL
same,growth after re-inoculation on BHI agar,[16]; UV-5 0.16 mg/ml,+
same,growth after re-inoculation on BHI agar,[16]; UV-5 0.3 mg/ml,+
same,growth after re-inoculation on BHI agar,[16]; UV-5 0.62 mg/ml,+
same,growth after re-inoculation on BHI agar,[16]; UV-5 2.5 mg/ml,+
same,growth after re-inoculation on BHI agar,[16]; UV-5 5 mg/ml,+
same,growth after re-inoculation on BHI agar,[16]; UV-5 10 mg/ml,+
same,growth after re-inoculation on BHI agar,[16]; UV-5 20 mg/ml,−
same,MBC,[17],10000 µg/mL
same,Inhibition zone diameter,[2]; UV-5 160 ug disc,15 mm
same,Inhibition zone diameter,[3]; UV-5 160 ug disc,16 mm
same,Inhibition zone diameter,[4]; UV-5 160 ug disc,6 mm
same,Inhibition zone diameter,[5]; UV-5 160 ug disc,6 mm
same,Inhibition zone diameter,[6]; UV-5 160 ug disc,14 mm
same,Inhibition zone diameter,[7]; UV-5 160 ug disc,17 mm
same,Inhibition zone diameter,[8]; UV-5 160 ug disc,16 mm
same,Inhibition zone diameter,[9]; UV-5 160 ug disc,16 mm
same,Inhibition zone diameter,[10]; UV-5 160 ug disc,12 mm
same,Inhibition zone diameter,[11]; UV-5 160 ug disc,18 mm
same,significance of survival increase vs water,[18]; 100 mg/kg UV-5 BID,not a statistically significant increase in survival
same,survival,"[18]; 100 mg/kg UV-5 orally BID for 10 days, from 3 days before IP challenge, water control 30%",70%
same,toxicity at the dose/regimen used,"[18]; 100 mg/kg UV-5 orally BID, mice",some toxicity was observed
